Consider 2 molecules from patent publication US8288107B2, “Materials and methods for detecting interaction of CFTR polypeptides” (Florida State University Research Foundation, priority 1999, dated 2012).

Test [1] addresses T1, NBD1 ΔF508 domain of CFTR (dimerization) (Homo sapiens, UniProt P13569, DEL508-508/V470M).
T1 construct: expressed in transfected cells; host or cells: Saccharomyces cerevisiae strain YRG2 (Stratagene), transformed with pBDPN-ΔF and pADPN-ΔF = YRG2-ΔF
As to the kind of experiment: Yeast two-hybrid growth assay with YRG2-ΔF strain on selective media lacking histidine. Type of test: cell-based. As to conditions: 1.5M glycerol in growth media; 37° C.; media lacking leucine, tryptophan and histidine. How it is done: FIGS. 2A-2C show growth of two-hybrid yeast strains containing wildtype and mutant CFTR NBD1. The yeast strain YRG2 was transformed with pADGAL4 and pBDGAL4 constructs containing wildtype and mutant CFTR NBD1 as indicated. Each strain was grown in synthetic complete media lacking leucine and tryptophan, and equal aliquots of cells in 10-fold dilutions were spotted to synthetic complete media lacking leucine, tryptophan and histidine. Dilutions for each strain proceed from right to left, with the spots from most dilute cultures corresponding to the tapered end of the triangle. Plates were incubated at either 21° C. (FIG. 2A) or 37° C. (FIG. 2B) (for 3 days and 5 days respectively). Glycerol was added to the media to a final concentration of 1.5 M as indicated (1.5 M Glyc) (FIG. 2C).
The present invention concerns methods for screening chemical compounds for drug candidates with activity to correct the dimerization defect associated with mutant CFTR NBD1 containing the ΔF508 mutation. […] If the sample tested is a pure compound, the compound can then be analyzed further in secondary assays to determine its activity to restore CFTRΔF508 cAMP-stimulated chloride channel activity in mammalian cells expressing CFTRΔF508 (Sheppard et al., 1994). […]

For the next test, the system named is YRG2-ΔF strain. As to the kind of experiment: Colony formation on SC-HIS-LEU-TRP media, YRG2-ΔF strain. Conditions: 1.5 mM in SC-HIS-LEU-TRP media; 30° C.; three days. Type of test: cell-based, yeast. The method, then:
(§1) When the YRG2-ΔF strain was streaked onto solid media (SC-HIS, -LEU, -TRP) and incubated at 21° C., colonies formed within three days (Table 2). The YRG2-ΔF colonies were approximately the same size as colonies produced by YRG2-WT grown under the same conditions. However, when YRG2-ΔF was streaked onto SC-HIS-LEU-TRP solid media and incubated at 30° C., only small colonies were apparent after three days (substantially smaller in size than YRG2-WT colonies grown under the same growth conditions). Colonies were not apparent (or were detectable only as extremely small micro-colonies) when YRG2-ΔF was streaked onto solid SC-HIS, -LEU, -TRP media and incubated at 34° C. The ΔF508 mutation thus conferred a temperature-sensitive HIS+ phenotype to the yeast strain containing pADPN-ΔF and pBDPN-ΔF. To further enhance the temperature-sensitive HIS− colony phenotype of the YRG2-ΔF strain relative to the YRG2-WT strain, it is advantageous to incorporate 3-amino-1,2,4-triazole at a concentration of 1.5 mM into the SC-HIS-LEU-TRP media.
To use the YRG2-ΔF strain for screening purposes, a lawn of the YRG2-ΔF strain is spread onto selective media. This media contains yeast nitrogen base and all amino acids except for histidine, leucine, and tryptophan. The media also contains 3-amino 1,2,4-triazole at a concentration of 1.5 mM. […]

The next test has as its system YRG2-WT strain. The test can be described thus: Colony formation on SC-HIS-LEU-TRP media, YRG2-WT strain. Type of test: cell-based, yeast. Conditions: 1.5 mM in SC-HIS-LEU-TRP media; 30° C.; three days. The method, then:
as §1

T1 sequence (P13569 with tags, fused parts or gaps V470M/DEL508-508): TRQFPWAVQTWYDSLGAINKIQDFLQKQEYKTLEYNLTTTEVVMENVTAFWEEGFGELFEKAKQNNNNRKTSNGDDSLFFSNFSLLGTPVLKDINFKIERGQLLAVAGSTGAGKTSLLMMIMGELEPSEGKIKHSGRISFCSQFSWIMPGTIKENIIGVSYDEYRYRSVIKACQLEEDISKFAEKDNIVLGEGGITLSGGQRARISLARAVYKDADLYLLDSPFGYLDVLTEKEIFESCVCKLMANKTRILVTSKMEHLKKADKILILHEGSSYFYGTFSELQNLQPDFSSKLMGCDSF
T1 sequence (P13569 with tags, fused parts or gaps V470M/DEL508-508): as above

In the case of `OCC(O)CO` [glycerol], the “rescue of temperature-sensitive dimerization of mutant NBD1 containing ΔF508” value in test [1] was “rescued”.
In the case of `Nc1nc[nH]n1` [3-amino-1,2,4-triazole], in the test on YRG2-ΔF strain, the “colony formation of YRG2-ΔF strain” value was “prevents colony formation”. Besides, the “colony formation of YRG2-WT strain” value in the test on YRG2-WT strain is given as “does not inhibit colony formation”.
